According to patent US10344071B2, “Identification of novel anti-fibrotic peptide in C-terminal region of the MET receptor tyrosine kinase” (MUSC Foundation for Research Development, priority 2015, dated 2019):

How the values were obtained:
Format in all cases: cell-based, human
[1] = system: alveolar epithelial cells (AEC, A549); experiment: Caspase 3 Assay, FasL- and cisplatin-induced apoptosis; details: for apoptosis, level of active caspase 3: AEC incubated 24 h with the inducer; for FasL-induced apoptosis (caspase 3 activity) / cisplatin-induced apoptosis (caspase 3 activity): AEC, 24 hours, peptide treatment, p<0.01
Procedure: FIG. 7 depicts alveolar epithelial cells (AEC) transfected with MET WT but not with MET D1398G are protected from FasL- and cisplatin-induced apoptosis. Transfected AEC were incubated with or without FasL or cisplatin for 24 hours, collected with lysis buffer and analyzed by Caspase 3 Assay as detailed in Materials and Methods.
(§1) FIG. 17A depicts 1403 and 1404 peptides inhibit collagen in TGFβ-stimulated LF. Cells were incubated with and without TGFβ (5 ng/ml), 1403, and 1404 peptides (1 μg/ml) or scrambled peptide (Control, Co) for 24 h and analyzed by immunoblotting using anti-collagen type I antibody. FIG. 17B depicts 1403 and 1404 but not M10 protect AEC from FasL- and cisplatin-induced apoptosis. AEC were incubated with or without 1403, 1404, or scrambled (Control) peptides, FasL, and cisplatin for 24 hours and analyzed by Caspase 3 Assay from Abcam.
Caspase 3 Assay Kit (Abcam, Cambridge, Mass.) was used to detect apoptosis in cultured cells. The cells were plated on 100 mm plates, transfected with MET WT or D1398G, and treated with or without FasL and cisplatin for 24 h. Cell lysates were collected in accordance to with the manufacturer's instructions, transferred to a 96-well plate, and incubated with DEVD-p-NA substrate at 37° C. for 2 hours followed by reading the absorbance at 405 nm on a spectrophotometer.
A cell-protective effect of HGF and MET have been reported in AEC in numerous studies (Crestani, et al., Proc Am Thorac Soc, 2012, 9(3):158-63 and Gazdhar, et al., Hum Gene Ther, 2013, 24(1):105-16). To investigate if the D1398G mutation interferes with anti-apoptotic effects of MET in AEC, apoptosis of AEC with FasL and cisplatin and measured caspase 3 activity in cell lysates was induced. […] In contrast, AEC transfected with the MET D1398G mutant were not protected from FasL- and cisplatin-induced apoptosis.
To investigate if the 1403 and 1404 peptides have anti-apoptotic effects in AEC, apoptosis of AEC was induced with FasL and cisplatin and measured caspase 3 activity in cell lysates. […] In contrast, AEC treated with scrambled peptide were not protected from FasL- and cisplatin-induced apoptosis (FIG. 17B).

[2] = system: caspase-3; experiment: Cisplatin-induced cleaved caspase-3, Western blot; details: for cleaved or active caspase-3 by Western blot: 50 μM for 24 h
Procedure: FIG. 5, comprising FIG. 5A and FIG. 5B, depicts effects of cisplatin in lung fibroblasts (LF) and alveolar epithelial cells (AEC) transfected with MET WT and MET D1398G. FIG. 5A depicts transfected cells were incubated with or without cisplatin for 24 hours. The cells were collected with lysis buffer and analyzed by Western blot with indicated antibodies. FIG. 5B depicts densitometric analysis of uncleaved MET detected by C12 antibody. Values are the mean and SD from three independent experiments.

[3] = system: fetal lung fibroblasts (MRC5 immortal cell line); experiment: TGFβ-induced collagen type I, immunoblot; details: peptide 1 μg/ml, TGFβ 5 ng/ml, 24 h
Procedure: FIG. 11, comprising FIG. 11A and FIG. 11B, depicts the effect of M10 on TGFβ-induced collagen type 1. FIG. 11A depicts MRC5 cells, normal lung fibroblasts, and normal skin fibroblasts were incubated with or without M10, scrambled peptide (Scr), and TGFβ for 48 hours in serum-free medium. Cell extracts were immunoblotted with anticollagen type I and anti-β-actin antibodies. FIG. 11B depicts densitometric analysis of collagen type I immunoblots from 2 independent experiments.
as §1, with “FIG. 17B depicts 1403 and 1404 but not M10 protect AEC from FasL- and cisplatin-induced apoptosis.” left out
Cells were collected and analyzed by immunoblotting as previously described (Bogatkevich et al., J Biol Chem. 2001, 276:45184-45192; Bogatkevich et al., Arthritis Rheum. 2007, 56:3468-3477). The phosphorylation of Smad2 was analyzed by Western blot using anti-phospho-Smad2 antibody in accordance with the manufacturer's instructions (Cell Signaling Technology). […] Total amount of Smad2 was evaluated by re-blotting with anti-Smad2 polyclonal antibody. […]

Molecule	apoptosis, level of active caspase 3 [1]	cleaved caspase by Western blot ([2]; AEC and LF, 100 μM)	cleaved or active caspase-3 by Western blot ([2]; AEC)	cleaved or active caspase-3 by Western blot ([2]; LF)	FasL-induced apoptosis (caspase 3 activity) [1]	cisplatin-induced apoptosis (caspase 3 activity) [1]	levels of TGFβ-induced collagen [3]
N.N.[Cl][Pt][Cl] [cisplatin]	resulted in apoptosis reflected by an increase in the level of active caspase 3	yielded cleaved caspase not only in AEC but also in LF	detectable	not in LF			
DDEVDTRPAS (1403 Peptide) [compound 1403, M5 peptide with added caspase-3 cleavage sites and an additional N-terminal aspartic acid]					significantly reduced apoptosis	significantly reduced apoptosis	significantly reduced
DEVDTRPAS (1404 Peptide) [compound 1404, M5 peptide with added caspase-3 cleavage sites]					significantly reduced apoptosis	significantly reduced apoptosis	significantly reduced
FasL: inducer of apoptosis in AEC (protein, UniProt P48023 130-281, looked up) Tumor necrosis factor ligand …: QIGHPSPPPEKKELRKVAHLTGKSNSRSMPLEWEDTYGIVLLSGVKYKKGGLVINETGLYFVYSKVYFRGQSCNNLPLSHKVYMRNSKYPQDLVMMEGKMMSYCTTGQMWARSSYLGAVFNLTSADHLYVNVSELSLVNFEESQTFFGLYKL	resulted in apoptosis reflected by an increase in the level of active caspase 3						
